Converted amounts (≈) assume the structure as drawn.
Columns and labels:
Type in all cases: physicochemical
[1] = Solubility test by visual observation; settings: thermodynamic from solid; for solubility: both water and pH 6.8 buffer; for solubility at 0.5 h: visual observation
Procedure: The solubilities of 1-Na and 1-K salts were very high, so the solubility was determined by visual observation. Weighed about 5 mg of sample solid (1-Na or 1-K salt) into a 2 mL of vial, and then added 5 uL of pH 6.8 buffer solution or water each time until the solids was dissolved.
(§1) The solubilities of the three salts and the Compound 1 were studied in pH 6.8 buffer and water, and the data was summarized in Table 5.

[2] = Dynamic moisture sorption (DVS); settings: at 80% RH
Procedure: DYNAMIC MOISTURE SORPTION: Dynamic moisture adsorption and desorption were studied using IGA sorp (Hiden Isochema Ltd. Warrington, UK). About 3-5 mg of prepared sample was placed in a sample basket and hung in the measuring chamber of an IGA Sorp. For an isotherm test, the chamber temperature is maintained by a water bath at constant 25±1° C. The sample was tested at a targeted RH of 10 to 90% full cycle in step mode. The analysis was performed in 10% RH increments. Time duration at each RH was set as min.30 minutes to max. 120 min, so that the sample could reach equilibrium with the chamber environment. Data was collected in 3 minutes increment.

[3] = Solubility test, suspension filtered and filtrate analyzed by HPLC; settings: thermodynamic from solid, 25° C.
Procedure: The suspension was centrifuged under 200 rpm at 25° C., and 0.3 mL to 0.5 mL of […]. At each time point, the suspension was filtered to remove solid, and the filtrate was analyzed by HPLC.
as §1

Compound	solubility ([1]; aqueous buffer) [µg/mL]	solubility at 0.5 h ([1]; aqueous buffer, pH 6.8 buffer) [µg/mL]	solubility at 0.5 h ([1]; water) [µg/mL]	Water adsorbed (hygroscopicity) [2] [%]	solubility at 0.5 h ([3]; aqueous buffer, pH 6.8 buffer) [µg/mL]	solubility at 2 h ([3]; aqueous buffer, pH 6.8 buffer) [µg/mL]	solubility at 0.5 h ([3]; water) [µg/mL]	solubility at 2 h ([3]; water) [µg/mL]
N#Cc1ccc(-c2cnccc2SCC2(CC(=O)[O-])CC2)cc1.[K+] [1-K salt, potassium 2-(1-(((3-(4-cyanophenyl)pyridin-4-yl)thio)methyl)cyclopropyl)acetate]	> 400000	> 400000	> 400000	50.63	–	–	–	–
N#Cc1ccc(-c2cnccc2SCC2(CC(=O)[O-])CC2)cc1.[Na+] [1-Na salt, sodium 2-(1-(((3-(4-cyanophenyl)pyridin-4-yl)thio)methyl)cyclopropyl)acetate]	> 400000	> 400000	> 400000	8.28	–	–	–	–
N#Cc1ccc(-c2cnccc2SCC2(CC(=O)O)CC2)cc1 [Compound 1, 2-(1-(((3-(4-cyanophenyl)pyridin-4-yl)thio)methyl)cyclopropyl)acetic acid]	–	–	–	–	83 (≈ 256 µM)	84 (≈ 259 µM)	19 (≈ 58.6 µM)	34 (≈ 105 µM)
